Test results reported in ChEMBL document CHEMBL1136321, “Regioselective synthesis and cytotoxicities of camptothecin derivatives modified at the 7-, 10- and 20-positions” (Bioorg Med Chem Lett, 2003).

Assays:
Format in all cases: functional, cell-based
HCT-8 = test: In vitro cytotoxicity against HCT-8 (human colon cancer)
Bel-7402 = test: In vitro cytotoxicity against Bel7402 (human liver cancer); conditions: Bel-7402, Liver
A2780 = test: In vitro cytotoxicity against A2780 (human ovarian cancer)
KB VCR R = test: In vitro cytotoxicity against KB/VCR (Vincristine-resistant cancer cell line); conditions: Homo sapiens
KB = test: In vitro cytotoxicity against KB (human epidermoid carcinoma of the nasopharynx)
A549 = test: In vitro cytotoxicity against A549 (human lung cancer)

CC[C@@]1(O)C(=O)OCc2c1cc1n(c2=O)Cc2c-1nc1ccccc1c2COC(=O)Cc1cc(OC)c(OC)c(OC)c1
IC50 (HCT-8): 0.055 µM | IC50 (Bel-7402): 0.072 µM | IC50 (A2780): 0.061 µM | IC50 (KB VCR R): 0.34 µM | IC50 (KB): 0.036 µM | IC50 (A549): 0.16 µM

CC[C@@]1(OC(=O)COc2ccc(OC)cc2)C(=O)OCc2c1cc1n(c2=O)Cc2cc3cc(OC(=O)COc4ccc(OC)cc4)ccc3nc2-1
IC50 (HCT-8): 0.097 µM | IC50 (Bel-7402): 0.2 µM | IC50 (A2780): 0.088 µM | IC50 (KB VCR R): 0.46 µM | IC50 (KB): 0.069 µM | IC50 (A549): 0.718 µM

CC[C@@]1(OC(=O)COc2ccc(C#N)c(F)c2)C(=O)OCc2c1cc1n(c2=O)Cc2c-1nc1ccccc1c2COC(=O)COc1ccc(C#N)c(F)c1
IC50 (HCT-8): 0.048 µM | IC50 (Bel-7402): 0.033 µM | IC50 (A2780): 0.01 µM | IC50 (KB VCR R): 0.053 µM | IC50 (KB): 0.009 µM | IC50 (A549): 0.055 µM

CC[C@@]1(OC(=O)Cc2cc(OC)c(OC)c(OC)c2)C(=O)OCc2c1cc1n(c2=O)Cc2c-1nc1ccccc1c2COC(=O)Cc1cc(OC)c(OC)c(OC)c1
IC50 (HCT-8): 0.076 µM | IC50 (Bel-7402): 0.082 µM | IC50 (A2780): 0.068 µM | IC50 (KB VCR R): 0.947 µM | IC50 (KB): 0.078 µM | IC50 (A549): 0.098 µM

CC[C@@]1(OC(=O)COc2ccc(OC)cc2)C(=O)OCc2c1cc1n(c2=O)Cc2c-1nc1ccccc1c2COC(=O)COc1ccc(OC)cc1
IC50 (HCT-8): 0.076 µM | IC50 (Bel-7402): 0.084 µM | IC50 (A2780): 0.071 µM | IC50 (KB VCR R): 0.267 µM | IC50 (KB): 0.31 µM | IC50 (A549): 0.348 µM

CC[C@@]1(O)C(=O)OCc2c1cc1n(c2=O)Cc2cc3ccccc3nc2-1 [CAMPTOTHECIN]
IC50 (HCT-8): 0.007 µM | IC50 (Bel-7402): 0.007 µM | IC50 (A2780): 0.007 µM | IC50 (KB VCR R): 0.009 µM | IC50 (KB): 0.009 µM | IC50 (A549): 0.008 µM

CC[C@@]1(O)C(=O)OCc2c1cc1n(c2=O)Cc2cc3cc(OC(=O)COc4ccc(OC)cc4)ccc3nc2-1
IC50 (HCT-8): 0.061 µM | IC50 (Bel-7402): 0.074 µM | IC50 (A2780): 0.065 µM | IC50 (KB VCR R): 0.275 µM | IC50 (KB): 0.047 µM | IC50 (A549): 0.19 µM

CC[C@@]1(O)C(=O)OCc2c1cc1n(c2=O)Cc2c-1nc1ccccc1c2COC(=O)COc1ccc(F)cc1
IC50 (HCT-8): 0.008 µM | IC50 (Bel-7402): 0.009 µM | IC50 (A2780): 0.008 µM | IC50 (KB VCR R): 0.049 µM | IC50 (KB): 0.007 µM | IC50 (A549): 0.057 µM

CC[C@@]1(OC(=O)COc2ccc(F)cc2)C(=O)OCc2c1cc1n(c2=O)Cc2c-1nc1ccccc1c2COC(=O)COc1ccc(F)cc1
IC50 (HCT-8): 0.052 µM | IC50 (Bel-7402): 0.026 µM | IC50 (A2780): 0.058 µM | IC50 (KB VCR R): > 1 µM | IC50 (KB): 0.072 µM | IC50 (A549): 0.293 µM

CC[C@@]1(O)C(=O)OCc2c1cc1n(c2=O)Cc2cc3c(CN(C)C)c(O)ccc3nc2-1 [TOPOTECAN]
IC50 (HCT-8): 0.074 µM | IC50 (Bel-7402): 0.078 µM | IC50 (A2780): 0.058 µM | IC50 (KB VCR R): 0.339 µM | IC50 (A549): 0.087 µM

CC[C@@]1(O)C(=O)OCc2c1cc1n(c2=O)Cc2c-1nc1ccccc1c2COC(=O)COc1ccc(OC)cc1
IC50 (HCT-8): 0.009 µM | IC50 (Bel-7402): 0.008 µM | IC50 (A2780): 0.009 µM | IC50 (KB VCR R): 0.051 µM | IC50 (KB): 0.008 µM | IC50 (A549): 0.069 µM

CC[C@@]1(O)C(=O)OCc2c1cc1n(c2=O)Cc2cc3cc(OC(=O)COc4ccc(F)cc4)ccc3nc2-1
IC50 (HCT-8): 0.062 µM | IC50 (Bel-7402): 0.095 µM | IC50 (A2780): 0.054 µM | IC50 (KB VCR R): 0.244 µM | IC50 (KB): 0.053 µM | IC50 (A549): 0.08 µM

CC[C@@]1(O)C(=O)OCc2c1cc1n(c2=O)Cc2c-1nc1ccccc1c2COC(=O)COc1ccc(C#N)c(F)c1
IC50 (HCT-8): < 0.001 µM | IC50 (Bel-7402): < 0.001 µM | IC50 (A2780): < 0.001 µM | IC50 (KB VCR R): 0.437 µM | IC50 (KB): < 0.001 µM | IC50 (A549): 0.008 µM

CC[C@@]1(OC(=O)COc2ccc(F)cc2)C(=O)OCc2c1cc1n(c2=O)Cc2cc3cc(OC(=O)COc4ccc(F)cc4)ccc3nc2-1
IC50 (HCT-8): 0.082 µM | IC50 (Bel-7402): 0.095 µM | IC50 (A2780): 0.015 µM | IC50 (KB VCR R): 0.295 µM | IC50 (KB): 0.055 µM | IC50 (A549): 0.401 µM
